Source: patent publication US12398154B2, “Azaquinazoline pan-KRas inhibitors” (Mirati Therapeutics, Inc., priority 2020, dated 2025)

Experiments:
[1] = biological target: KRas G12C (Homo sapiens, UniProt P01116, G12C); test: biochemical;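 note: binding to KRas assessed by TR-FRET displacement after one hour incubation at room temperature, potency fitted from percent-of-control values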
Experimental: (§1) The ability of a compound to bind to KRas was measured using a TR-FRET displacement assay. […] After a 60-minute incubation at room temperature, the reaction was measured using a BMG LABTECH CLARIO star Plus via TR-FRET. […] The POC values were fit to a 4-parameter IC50 equation and the IC50 value reported.

[2] = biological target: KRas G12S (Homo sapiens, UniProt P01116, G12S); test: biochemical;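 note: TR-FRET displacement binding to KRas, read after one hour incubation at room temperature, IC50 from four-parameter fit of percent of control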
Sequence of KRas G12S (P01116 1-169 isoform P01116-2 G12S): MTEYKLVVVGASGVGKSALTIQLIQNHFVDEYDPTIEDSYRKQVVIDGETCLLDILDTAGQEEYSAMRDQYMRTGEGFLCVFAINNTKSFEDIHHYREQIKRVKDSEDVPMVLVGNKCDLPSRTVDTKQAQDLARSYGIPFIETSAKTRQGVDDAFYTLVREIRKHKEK
Experimental: as §1

[3] = biological target: T1, KRas Q61H (Homo sapiens, UniProt P01116, Q61H); test: KRas binding assay (TR-FRET displacement);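 note: TR-FRET signal read after one hour at room temperature, IC50 derived by four-parameter fitting of percent-of-control values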
T1 construct: Biotinylated KRas (corresponding to amino acids 1-169, produced at Accelegan Inc.); biotin (biotinylated); purchased Accelegan Inc
T1 sequence (P01116 1-169 isoform P01116-2 Q61H): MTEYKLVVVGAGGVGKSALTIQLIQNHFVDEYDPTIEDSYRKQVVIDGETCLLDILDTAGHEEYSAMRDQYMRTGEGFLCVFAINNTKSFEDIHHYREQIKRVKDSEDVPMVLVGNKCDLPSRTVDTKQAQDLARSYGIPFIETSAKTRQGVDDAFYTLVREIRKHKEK
Experimental: as §1

[4] = biological target: KRas WT (Homo sapiens, UniProt P01116); test: biochemical;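 note: binding to KRas read as TR-FRET displacement after a one-hour room-temperature incubation, IC50 derived from percent-of-control values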
Sequence of KRas WT (P01116 1-169 isoform P01116-2): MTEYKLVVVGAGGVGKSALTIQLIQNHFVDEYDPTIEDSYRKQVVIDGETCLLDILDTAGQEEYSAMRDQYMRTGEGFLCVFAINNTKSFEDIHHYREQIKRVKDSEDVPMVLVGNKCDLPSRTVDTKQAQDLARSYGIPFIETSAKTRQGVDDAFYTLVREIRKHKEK
Experimental: as §1

[5] = biological target: T2, KRas G13D (Homo sapiens, UniProt P01116, G13D); test: KRas binding assay (TR-FRET displacement);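 note: One-hour room temperature incubation before TR-FRET reading, IC50 from a four-parameter curve fit to percent-of-control data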
T2 construct: Biotinylated KRas (corresponding to amino acids 1-169, produced at Accelegan Inc.); biotin (biotinylated); purchased Accelegan Inc
T2 sequence (P01116 1-169 isoform P01116-2 G13D): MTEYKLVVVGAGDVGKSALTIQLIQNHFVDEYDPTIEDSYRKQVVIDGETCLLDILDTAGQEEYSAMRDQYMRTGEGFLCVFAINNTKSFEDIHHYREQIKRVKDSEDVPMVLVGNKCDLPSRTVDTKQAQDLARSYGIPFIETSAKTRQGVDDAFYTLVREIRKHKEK
Experimental: as §1

[6] = biological target: KRas G12A (Homo sapiens, UniProt P01116, G12A); test: biochemical;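 note: binding to KRas measured by TR-FRET displacement after one hour at room temperature, IC50 from a four-parameter fit of percent-of-control values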
Sequence of KRas G12A (P01116 1-169 isoform P01116-2 G12A): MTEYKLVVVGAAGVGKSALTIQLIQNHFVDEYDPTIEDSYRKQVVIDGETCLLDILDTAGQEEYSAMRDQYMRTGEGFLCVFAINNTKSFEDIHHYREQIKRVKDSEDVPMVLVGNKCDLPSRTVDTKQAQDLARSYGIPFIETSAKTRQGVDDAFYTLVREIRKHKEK
Experimental: as §1

[7] = biological target: KRas G12D (Homo sapiens, UniProt P01116, G12D); test: biochemical;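 note: TR-FRET displacement binding assay on KRas, read after a one-hour incubation at room temperature, IC50 fitted from percent-of-control values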
Sequence of KRas G12D (P01116 1-169 isoform P01116-2 G12D): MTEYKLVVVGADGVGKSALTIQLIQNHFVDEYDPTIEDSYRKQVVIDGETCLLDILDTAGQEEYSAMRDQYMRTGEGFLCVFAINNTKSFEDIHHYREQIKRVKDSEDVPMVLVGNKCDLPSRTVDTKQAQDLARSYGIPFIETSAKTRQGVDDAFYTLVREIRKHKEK
Experimental: as §1

[8] = biological target: KRas G12R (Homo sapiens, UniProt P01116, G12R); test: biochemical;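 note: TR-FRET displacement assay of compound binding to KRas, read after one hour at room temperature, potency from a four-parameter fit of percent-of-control values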
Sequence of KRas G12R (P01116 1-169 isoform P01116-2 G12R): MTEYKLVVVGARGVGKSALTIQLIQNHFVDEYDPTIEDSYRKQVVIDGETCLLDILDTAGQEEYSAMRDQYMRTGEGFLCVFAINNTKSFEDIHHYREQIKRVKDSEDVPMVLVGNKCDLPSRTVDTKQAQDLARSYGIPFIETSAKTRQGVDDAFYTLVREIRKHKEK
Experimental: as §1

[9] = biological target: KRas G12V (Homo sapiens, UniProt P01116, G12V); test: biochemical;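 note: KRas binding measured by TR-FRET displacement at room temperature, IC50 fitted from percent of control values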
Sequence of KRas G12V (P01116 1-169 isoform P01116-2 G12V): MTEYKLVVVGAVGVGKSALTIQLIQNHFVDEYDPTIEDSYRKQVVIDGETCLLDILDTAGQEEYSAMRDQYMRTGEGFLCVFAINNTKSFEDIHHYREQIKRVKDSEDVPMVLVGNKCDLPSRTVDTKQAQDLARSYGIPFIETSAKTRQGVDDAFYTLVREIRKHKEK
Experimental: as §1

Sequence of KRas G12C (P01116 1-169 isoform P01116-2 G12C): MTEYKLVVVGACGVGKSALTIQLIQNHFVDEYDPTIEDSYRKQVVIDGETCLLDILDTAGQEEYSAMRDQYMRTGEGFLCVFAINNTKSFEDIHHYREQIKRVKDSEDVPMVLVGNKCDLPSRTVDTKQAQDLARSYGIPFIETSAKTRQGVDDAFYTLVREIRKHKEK

IC50 [1] [µM]	IC50 [2] [µM]	IC50 [3] [nM]	IC50 [4] [µM]	IC50 [5] [nM]	IC50 [6] [µM]	IC50 [7] [µM]	IC50 [8] [µM]	IC50 [9] [µM]	SMILES
0.041	0.069	102	0.103	83	0.085	0.152	0.081	0.078	O=C1NC(=O)C2(CCCN(c3nc(OCC45CCCN4CCC5)nc4c(F)c(-c5cccc6cccc(F)c56)ncc34)C2)N1 (stereo not drawn) [Example 158, 7-(8-fluoro-7-(8-fluoronaphthalen-1-yl)-2-((hexahydro-1H-pyrrolizin-7a-yl)methoxy)pyrido[4,3-d]pyrimidin-4-yl)-1,3,7-triazaspiro[4.5]decane-2,4-dione]
3.41	6.87	17300	8.8	8560	6.55	20.8	1.98	1.72	Fc1c(-c2cccc3cccc(F)c23)ncc2c(NCc3ncc4cc[nH]c4n3)nc(OCC34CCCN3CCC4)nc12 [Example 92, N-((7H-pyrrolo[2,3-d]pyrimidin-2-yl)methyl)-8-fluoro-7-(8-fluoronaphthalen-1-yl)-2-((hexahydro-1H-pyrrolizin-7a-yl)methoxy)pyrido[4,3-d]pyrimidin-4-amine]
8.79	4.98	13200	6.81	9370	7.54	24	6.78	4.45	Fc1c(-c2cccc3cccc(F)c23)ncc2c(N3C[C@@H]4CC[C@@H](C4)C3)nc(OCC34CCCN3CCC4)nc12 [Example 18, 4-((1R,5S)-3-azabicyclo[3.2.1]octan-3-yl)-8-fluoro-7-(8-fluoronaphthalen-1-yl)-2-((hexahydro-1H-pyrrolizin-7a-yl)methoxy)pyrido[4,3-d]pyrimidine]
1.62	1.76	2590	2.64	1980	2.3	2.02	1.85	1.6	Fc1c(-c2cccc3cccc(F)c23)ncc2c(N3CCCC4(CC(F)C4)C3)nc(OCC34CCCN3CCC4)nc12 (stereo not drawn) [Example 234, 8-fluoro-4-(2-fluoro-6-azaspiro[3.5]nonan-6-yl)-7-(8-fluoronaphthalen-1-yl)-2-((hexahydro-1H-pyrrolizin-7a-yl)methoxy)pyrido[4,3-d]pyrimidine]
39.9	28.8	42000	40.3	49300	50.4	11.8	≥ 100	17.3	Fc1c(-c2cccc3cccc(F)c23)ncc2c(Nc3ccc4[nH]ncc4c3)nc(OCC34CCCN3CCC4)nc12 [Example 100, 8-fluoro-7-(8-fluoronaphthalen-1-yl)-2-((hexahydro-1H-pyrrolizin-7a-yl)methoxy)-N-(1H-indazol-5-yl)pyrido[4,3-d]pyrimidin-4-amine]
2.52	10.1	12700	4.96	13300	3.7	63.4	1.61	2.35	N#Cc1cccnc1N1CCN(c2nc(OCC34CCCN3CCC4)nc3c(F)c(-c4cccc5cccc(F)c45)ncc23)CC1 [Example 209, 2-(4-(8-fluoro-7-(8-fluoronaphthalen-1-yl)-2-((tetrahydro-1H-pyrrolizin-7a(5H)-yl)methoxy)pyrido[4,3-d]pyrimidin-4-yl)piperazin-1-yl)nicotinonitrile]
2.53	2.79	4360	3.11	2500	2.69	2.26	4.43	2.79	OC1CCCN(c2nc(OCC34CCCN3CCC4)nc3c(F)c(-c4cccc5cccc(F)c45)ncc23)CC1 (stereo not drawn) [Example 129, 1-(8-fluoro-7-(8-fluoronaphthalen-1-yl)-2-((tetrahydro-1H-pyrrolizin-7a(5H)-yl)methoxy)pyrido[4,3-d]pyrimidin-4-yl)azepan-4-ol]
4.2	7.25	17700	16.8	20500	6.19	≥ 100	4.25	5.57	Fc1c(-c2cccc3cccc(F)c23)ncc2c(N3CC(c4ccncc4)C3)nc(OCC34CCCN3CCC4)nc12 [Example 213, 8-fluoro-7-(8-fluoronaphthalen-1-yl)-4-(3-(pyridin-4-yl)azetidin-1-yl)-2-((tetrahydro-1H-pyrrolizin-7a(5H)-yl)methoxy)pyrido[4,3-d]pyrimidine]
4.05	5.31	6020	4.03	3800	4.63	2.42	8.14	4.54	CN(C)CC1(COc2nc(N3CCCC(C)(O)C3)c3cnc(-c4cccc5cccc(F)c45)c(F)c3n2)CC1 (stereo not drawn) [Example 256, 1-(2-((1-((dimethylamino)methyl)cyclopropyl)methoxy)-8-fluoro-7-(8-fluoronaphthalen-1-yl)pyrido[4,3-d]pyrimidin-4-yl)-3-methylpiperidin-3-ol]
8.12	9.9	26100	16.6	23500	14.9	21.7	9.39	6.24	NC(=O)CCNc1nc(OCC23CCCN2CCC3)nc2c(F)c(-c3cccc4cccc(F)c34)ncc12 [Example 225, 3-((8-fluoro-7-(8-fluoronaphthalen-1-yl)-2-((hexahydro-1H-pyrrolizin-7a-yl)methoxy)pyrido[4,3-d]pyrimidin-4-yl)amino)propanamide]
1.26	1.24	3300	2.68	3800	2.2	0.677	1.76	1.53	Nc1cc2n(n1)CCCN(c1nc(OCC34CCCN3CCC4)nc3c(F)c(-c4cccc5cccc(F)c45)ncc13)C2 [Example 78, 5-(8-fluoro-7-(8-fluoronaphthalen-1-yl)-2-((hexahydro-1H-pyrrolizin-7a-yl)methoxy)pyrido[4,3-d]pyrimidin-4-yl)-5,6,7,8-tetrahydro-4H-pyrazolo[1,5-a][1,4]diazepin-2-amine]
1.15	1.81	3580	3.32	2960	1.05	25.4	1.06	2.19	NC(=O)NC1CCN(c2nc(OCC34CCCN3CCC4)nc3c(F)c(-c4cccc5cccc(F)c45)ncc23)CC1 [Example 243, 1-(1-(8-fluoro-7-(8-fluoronaphthalen-1-yl)-2-((hexahydro-1H-pyrrolizin-7a-yl)methoxy)pyrido[4,3-d]pyrimidin-4-yl)piperidin-4-yl)urea]
43.3	≥ 100	≥ 100000	≥ 100	≥ 100000	66.5	≥ 100	37.8	2.94	Fc1c(-c2cccc3cccc(F)c23)ncc2c(Nc3cnn(-c4ccncc4)c3)nc(OCC34CCCN3CCC4)nc12 [Example 210, 8-fluoro-7-(8-fluoronaphthalen-1-yl)-N-(1-(pyridin-4-yl)-1H-pyrazol-4-yl)-2-((tetrahydro-1H-pyrrolizin-7a(5H)-yl)methoxy)pyrido[4,3-d]pyrimidin-4-amine]
3.62	4.12	10300	3.99	7180	5	55	3.06	4.99	O=S1(=O)CC(Nc2nc(OCC34CCCN3CCC4)nc3c(F)c(-c4cccc5cccc(F)c45)ncc23)C1 [Example 95, 3-((8-fluoro-7-(8-fluoronaphthalen-1-yl)-2-((hexahydro-1H-pyrrolizin-7a-yl)methoxy)pyrido[4,3-d]pyrimidin-4-yl)amino)thietane1,1-dioxide]
13.6	19.4	25900	19.2	18000	17.3	11.9	9.99	7.78	Fc1c(-c2cccc3cccc(F)c23)ncc2c(N3CCCC4(CCC4)C3)nc(OCC34CCCN3CCC4)nc12 [Example 232, 8-fluoro-7-(8-fluoronaphthalen-1-yl)-2-((hexahydro-1H-pyrrolizin-7a-yl)methoxy)-4-(6-azaspiro[3.5]nonan-6-yl)pyrido[4,3-d]pyrimidine]
3.08	2.39	4780	2.41	3000	2.25	6.9	8.49	3.1	NC(=O)C1CCCN(c2nc(OCC34CCCN3CCC4)nc3c(F)c(-c4cccc5cccc(F)c45)ncc23)C1 (stereo not drawn) [Example 86, 1-(8-fluoro-7-(8-fluoronaphthalen-1-yl)-2-((hexahydro-1H-pyrrolizin-7a-yl)methoxy)pyrido[4,3-d]pyrimidin-4-yl)piperidine-3-carboxamide]
